ChEMBL document CHEMBL3392986, “Hydroxamic acids block replication of hepatitis C virus” (J Med Chem, 2015)
The source made the active and inactive calls. The calls are words filed in the database; no cut-off is given here.

Legend:
[1] = Cytotoxicity against human HuH7 cells assessed as inhibition of cell viability after 3 days by CellTiter 96 assay
[2] = system: Hepatitis C virus; assay: Antiviral activity against HCV genotype 1b infected in human Huh7 cells after 3 days by luciferase reporter gene assay; type: functional, cell-based, Hepacivirus hominis; conditions: Huh-7, 72 h
[3] = biological target: Histone deacetylase 2 (Homo sapiens) (UniProt Q92769); assay: Inhibition of full length C-terminal His-tagged human HDAC2 expressed in baculovirus expression system assessed as inhibition of fluorophore 7-amino-4-methylcoumarin release by fluorescence assay
[4] = biological target: Histone deacetylase 3 (Homo sapiens) (UniProt O15379); assay: Inhibition of full length C-terminal His-tagged human HDAC3 expressed in baculovirus expression system assessed as inhibition of fluorophore 7-amino-4-methylcoumarin release by fluorescence assay
[5] = biological target: Histone deacetylase 4 (Homo sapiens) (UniProt P56524); assay: Inhibition of N-terminal GST-tagged human HDAC4 (amino acids 627 to 1085) expressed in baculovirus expression system assessed as inhibition of fluorophore 7-amino-4-methylcoumarin release by fluorescence assay
[6] = biological target: Histone deacetylase 5 (Homo sapiens) (UniProt Q9UQL6); assay: Inhibition of full length N-terminal GST-tagged human HDAC5 expressed in baculovirus expression system assessed as inhibition of fluorophore 7-amino-4-methylcoumarin release by fluorescence assay
[7] = biological target: T1, Protein deacetylase HDAC6 (Homo sapiens) (UniProt Q9UBN7); assay: Inhibition of full length N-terminal GST-tagged human HDAC6 expressed in baculovirus expression system assessed as inhibition of fluorophore 7-amino-4-methylcoumarin release by fluorescence assay
T1 sequence (whole entry): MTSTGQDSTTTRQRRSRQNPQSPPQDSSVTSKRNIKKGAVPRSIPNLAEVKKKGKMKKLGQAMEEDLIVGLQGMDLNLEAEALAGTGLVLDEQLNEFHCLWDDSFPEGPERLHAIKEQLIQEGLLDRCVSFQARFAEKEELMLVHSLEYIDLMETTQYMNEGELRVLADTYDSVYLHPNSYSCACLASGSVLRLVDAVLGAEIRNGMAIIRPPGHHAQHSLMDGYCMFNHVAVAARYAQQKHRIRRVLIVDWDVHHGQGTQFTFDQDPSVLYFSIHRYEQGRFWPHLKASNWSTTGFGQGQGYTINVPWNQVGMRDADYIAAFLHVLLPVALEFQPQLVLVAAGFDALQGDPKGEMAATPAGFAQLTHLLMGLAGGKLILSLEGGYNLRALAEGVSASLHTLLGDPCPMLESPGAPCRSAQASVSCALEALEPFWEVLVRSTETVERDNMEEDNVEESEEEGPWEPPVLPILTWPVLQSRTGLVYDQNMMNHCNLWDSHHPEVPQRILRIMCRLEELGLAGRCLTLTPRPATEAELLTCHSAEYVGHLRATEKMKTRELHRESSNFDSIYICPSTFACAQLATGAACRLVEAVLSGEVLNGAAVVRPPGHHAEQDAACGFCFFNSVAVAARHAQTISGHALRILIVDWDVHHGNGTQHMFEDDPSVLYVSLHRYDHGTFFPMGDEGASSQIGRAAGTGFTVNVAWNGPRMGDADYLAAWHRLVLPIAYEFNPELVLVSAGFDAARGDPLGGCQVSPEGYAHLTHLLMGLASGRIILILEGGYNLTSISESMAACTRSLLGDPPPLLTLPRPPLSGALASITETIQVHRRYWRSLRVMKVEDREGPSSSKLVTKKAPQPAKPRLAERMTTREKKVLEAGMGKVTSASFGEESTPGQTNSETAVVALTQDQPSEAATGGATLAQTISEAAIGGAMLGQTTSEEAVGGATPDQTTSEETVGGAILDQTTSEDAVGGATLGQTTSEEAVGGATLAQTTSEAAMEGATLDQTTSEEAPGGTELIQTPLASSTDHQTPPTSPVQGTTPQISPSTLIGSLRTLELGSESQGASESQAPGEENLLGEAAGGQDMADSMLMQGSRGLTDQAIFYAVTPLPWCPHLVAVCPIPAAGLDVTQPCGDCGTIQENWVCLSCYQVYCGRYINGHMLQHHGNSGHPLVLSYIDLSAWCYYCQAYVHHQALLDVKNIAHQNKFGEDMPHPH

[8] = biological target: Histone deacetylase 9 (Homo sapiens) (UniProt Q9UKV0); assay: Inhibition of full length C-terminal His-tagged human HDAC9 (amino acids 604 to 1066 ) expressed in baculovirus expression system assessed as inhibition of fluorophore 7-amino-4-methylcoumarin release by fluorescence assay
[9] = biological target: T2, Histone deacetylase 11 (Homo sapiens) (UniProt Q96DB2); assay: Inhibition of N-terminal GST-tagged human HDAC11 expressed in baculovirus expression system assessed as inhibition of fluorophore 7-amino-4-methylcoumarin release by fluorescence assay
T2 sequence (whole entry): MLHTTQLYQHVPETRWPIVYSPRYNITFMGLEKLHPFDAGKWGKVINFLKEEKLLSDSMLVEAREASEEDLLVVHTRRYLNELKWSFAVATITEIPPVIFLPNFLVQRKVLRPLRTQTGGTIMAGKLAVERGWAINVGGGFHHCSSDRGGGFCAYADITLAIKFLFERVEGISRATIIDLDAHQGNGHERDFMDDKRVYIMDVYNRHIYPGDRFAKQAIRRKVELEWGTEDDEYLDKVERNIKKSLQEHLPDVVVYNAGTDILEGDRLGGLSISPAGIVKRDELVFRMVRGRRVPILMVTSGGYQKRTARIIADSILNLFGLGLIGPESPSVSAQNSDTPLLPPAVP

[10] = biological target: Hepatitis C virus serine protease, NS3/NS4A (Hepatitis C virus) (UniProt D2K2A8+A3EZI9); assay: Inhibition of HCV NS3/4A protease; conditions: Hepacivirus hominis

Sequence of Histone deacetylase 5 (Homo sapiens) (Q9UQL6 whole entry): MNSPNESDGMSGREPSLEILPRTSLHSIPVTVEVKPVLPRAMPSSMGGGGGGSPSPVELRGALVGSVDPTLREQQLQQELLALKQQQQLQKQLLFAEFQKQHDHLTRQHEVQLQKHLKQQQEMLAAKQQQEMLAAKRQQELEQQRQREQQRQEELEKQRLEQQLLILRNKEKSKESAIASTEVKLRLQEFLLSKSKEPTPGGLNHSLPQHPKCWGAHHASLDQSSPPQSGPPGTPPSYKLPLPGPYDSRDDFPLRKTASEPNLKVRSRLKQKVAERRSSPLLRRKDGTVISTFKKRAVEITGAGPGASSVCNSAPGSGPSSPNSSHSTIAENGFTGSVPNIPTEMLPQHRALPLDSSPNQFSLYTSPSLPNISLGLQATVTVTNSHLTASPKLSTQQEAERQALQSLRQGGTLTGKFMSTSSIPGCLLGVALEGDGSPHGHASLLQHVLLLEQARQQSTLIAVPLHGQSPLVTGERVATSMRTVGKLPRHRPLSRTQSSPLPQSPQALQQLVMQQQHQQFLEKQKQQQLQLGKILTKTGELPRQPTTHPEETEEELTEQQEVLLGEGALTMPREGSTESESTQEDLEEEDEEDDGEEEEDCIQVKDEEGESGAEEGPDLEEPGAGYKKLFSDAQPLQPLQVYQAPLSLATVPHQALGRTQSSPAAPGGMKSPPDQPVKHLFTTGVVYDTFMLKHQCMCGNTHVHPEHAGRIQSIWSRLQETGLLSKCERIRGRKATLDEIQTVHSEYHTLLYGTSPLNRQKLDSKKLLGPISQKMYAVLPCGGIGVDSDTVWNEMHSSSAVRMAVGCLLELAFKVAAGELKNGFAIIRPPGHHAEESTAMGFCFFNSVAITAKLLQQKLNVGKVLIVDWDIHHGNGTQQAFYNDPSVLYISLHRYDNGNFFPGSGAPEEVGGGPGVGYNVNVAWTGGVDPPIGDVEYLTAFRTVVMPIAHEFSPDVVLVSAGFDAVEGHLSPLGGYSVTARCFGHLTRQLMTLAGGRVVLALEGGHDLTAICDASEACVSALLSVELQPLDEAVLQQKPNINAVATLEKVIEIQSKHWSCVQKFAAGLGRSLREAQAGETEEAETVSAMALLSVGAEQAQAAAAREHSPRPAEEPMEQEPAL
Sequence of Histone deacetylase 9 (Homo sapiens) (Q9UKV0 whole entry, the tested form may be a part): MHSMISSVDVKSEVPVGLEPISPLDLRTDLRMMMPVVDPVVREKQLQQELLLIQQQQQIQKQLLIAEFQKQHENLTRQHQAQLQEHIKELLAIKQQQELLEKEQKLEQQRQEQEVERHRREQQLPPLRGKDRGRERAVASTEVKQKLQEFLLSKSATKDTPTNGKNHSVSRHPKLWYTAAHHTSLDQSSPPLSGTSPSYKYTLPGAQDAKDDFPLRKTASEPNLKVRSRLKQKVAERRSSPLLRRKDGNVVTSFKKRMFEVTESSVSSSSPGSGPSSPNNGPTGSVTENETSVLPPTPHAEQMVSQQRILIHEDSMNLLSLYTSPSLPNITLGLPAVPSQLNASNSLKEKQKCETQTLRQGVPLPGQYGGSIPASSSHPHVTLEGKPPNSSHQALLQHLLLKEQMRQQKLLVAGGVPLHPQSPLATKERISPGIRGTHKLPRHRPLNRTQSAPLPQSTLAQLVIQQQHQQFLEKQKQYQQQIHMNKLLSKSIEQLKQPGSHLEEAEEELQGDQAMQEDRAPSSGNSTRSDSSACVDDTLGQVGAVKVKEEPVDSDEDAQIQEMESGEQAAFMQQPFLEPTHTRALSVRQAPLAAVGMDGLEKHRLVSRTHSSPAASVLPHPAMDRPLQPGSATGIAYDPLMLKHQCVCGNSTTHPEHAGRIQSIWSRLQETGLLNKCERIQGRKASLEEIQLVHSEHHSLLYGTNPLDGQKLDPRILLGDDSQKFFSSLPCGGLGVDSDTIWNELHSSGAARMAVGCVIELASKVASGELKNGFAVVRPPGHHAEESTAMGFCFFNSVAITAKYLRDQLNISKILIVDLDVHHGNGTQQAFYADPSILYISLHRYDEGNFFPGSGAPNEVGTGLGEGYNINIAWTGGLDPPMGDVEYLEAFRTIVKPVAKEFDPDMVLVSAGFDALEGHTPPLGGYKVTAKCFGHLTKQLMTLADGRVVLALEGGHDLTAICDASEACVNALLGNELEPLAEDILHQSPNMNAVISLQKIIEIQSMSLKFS
Sequence of Histone deacetylase 3 (Homo sapiens) (O15379 whole entry, the tested form may be a part): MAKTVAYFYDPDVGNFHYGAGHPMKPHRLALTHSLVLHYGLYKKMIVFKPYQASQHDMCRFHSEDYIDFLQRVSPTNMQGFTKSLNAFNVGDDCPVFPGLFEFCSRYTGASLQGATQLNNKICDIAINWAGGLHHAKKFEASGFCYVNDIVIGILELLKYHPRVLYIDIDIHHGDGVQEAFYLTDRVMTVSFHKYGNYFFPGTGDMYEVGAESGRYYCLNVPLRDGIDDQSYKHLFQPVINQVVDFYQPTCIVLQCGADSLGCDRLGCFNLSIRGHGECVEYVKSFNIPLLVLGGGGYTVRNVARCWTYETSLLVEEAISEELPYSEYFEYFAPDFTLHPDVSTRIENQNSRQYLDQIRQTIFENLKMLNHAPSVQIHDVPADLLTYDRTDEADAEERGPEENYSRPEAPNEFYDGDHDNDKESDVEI
Sequence of Histone deacetylase 4 (Homo sapiens) (P56524 whole entry, the tested form may be a part): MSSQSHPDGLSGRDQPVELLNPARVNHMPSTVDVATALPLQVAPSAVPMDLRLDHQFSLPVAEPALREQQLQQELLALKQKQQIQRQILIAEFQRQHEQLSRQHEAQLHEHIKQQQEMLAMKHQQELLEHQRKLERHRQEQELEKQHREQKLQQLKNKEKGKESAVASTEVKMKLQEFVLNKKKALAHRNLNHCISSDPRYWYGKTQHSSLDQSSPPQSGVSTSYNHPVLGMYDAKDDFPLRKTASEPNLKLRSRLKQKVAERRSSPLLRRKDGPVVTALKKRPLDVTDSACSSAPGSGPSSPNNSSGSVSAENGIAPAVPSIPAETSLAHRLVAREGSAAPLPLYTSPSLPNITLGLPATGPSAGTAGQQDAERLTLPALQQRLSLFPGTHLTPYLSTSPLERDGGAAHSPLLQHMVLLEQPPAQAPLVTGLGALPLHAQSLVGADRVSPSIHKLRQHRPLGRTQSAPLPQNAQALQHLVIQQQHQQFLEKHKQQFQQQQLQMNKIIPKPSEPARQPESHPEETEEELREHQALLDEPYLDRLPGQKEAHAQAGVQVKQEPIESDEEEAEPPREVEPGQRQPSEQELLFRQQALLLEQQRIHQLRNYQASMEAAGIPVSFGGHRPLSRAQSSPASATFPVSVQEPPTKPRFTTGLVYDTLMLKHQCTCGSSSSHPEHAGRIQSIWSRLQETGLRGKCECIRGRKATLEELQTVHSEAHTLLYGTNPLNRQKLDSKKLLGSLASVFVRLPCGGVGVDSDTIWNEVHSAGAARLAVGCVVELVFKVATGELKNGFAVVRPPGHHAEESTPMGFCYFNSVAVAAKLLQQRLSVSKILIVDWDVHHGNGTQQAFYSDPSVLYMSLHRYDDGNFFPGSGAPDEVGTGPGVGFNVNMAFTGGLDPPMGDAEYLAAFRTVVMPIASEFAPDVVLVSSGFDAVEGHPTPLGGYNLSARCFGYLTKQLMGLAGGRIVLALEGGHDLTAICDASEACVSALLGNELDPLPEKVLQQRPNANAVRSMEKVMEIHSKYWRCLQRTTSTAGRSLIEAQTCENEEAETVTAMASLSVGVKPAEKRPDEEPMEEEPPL
Sequence of Histone deacetylase 2 (Homo sapiens) (Q92769 whole entry): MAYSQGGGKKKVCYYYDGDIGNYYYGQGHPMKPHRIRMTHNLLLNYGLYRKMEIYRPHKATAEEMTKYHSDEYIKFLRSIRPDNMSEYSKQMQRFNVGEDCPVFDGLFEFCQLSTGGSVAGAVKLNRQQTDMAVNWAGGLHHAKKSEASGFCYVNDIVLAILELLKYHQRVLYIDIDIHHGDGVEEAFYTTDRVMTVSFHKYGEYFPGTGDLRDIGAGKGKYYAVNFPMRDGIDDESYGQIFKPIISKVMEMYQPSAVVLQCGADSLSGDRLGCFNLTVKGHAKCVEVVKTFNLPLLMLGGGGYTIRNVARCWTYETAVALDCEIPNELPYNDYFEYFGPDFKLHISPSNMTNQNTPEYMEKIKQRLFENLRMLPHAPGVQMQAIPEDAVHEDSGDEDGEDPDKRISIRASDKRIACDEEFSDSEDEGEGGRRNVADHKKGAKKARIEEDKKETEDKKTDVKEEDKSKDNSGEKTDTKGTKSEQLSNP

For `O=C(NO)c1sc2ccccc2c1S(=O)(=O)c1ccccc1`, the CC50 at 72 h [1] was 57 µM, the EC50 [2] was 0.61 µM and the inhibition [3] was “inactive”. For the same compound, the inhibition [4] was “inactive”, the inhibition [5] was “inactive” and the inhibition [6] was “inactive”. The inhibition [7] was “inactive”, the inhibition [8] was “inactive” and the inhibition [9] was “inactive”. For the same compound, the inhibition [10] was “inactive”.
